Reference: paper PMC7803991, “Prediction of pharmacological activities from chemical structures with graph convolutional neural networks” (Scientific Reports, 2021)
Structures can show the parent of a compound that is named as a salt.

Molecular target: T1, serotonin transporter (SERT) (Homo sapiens, UniProt P31645)
T1 construct: gene SLC6A4
Assay: cell-based

T1 sequence (P31645 whole entry): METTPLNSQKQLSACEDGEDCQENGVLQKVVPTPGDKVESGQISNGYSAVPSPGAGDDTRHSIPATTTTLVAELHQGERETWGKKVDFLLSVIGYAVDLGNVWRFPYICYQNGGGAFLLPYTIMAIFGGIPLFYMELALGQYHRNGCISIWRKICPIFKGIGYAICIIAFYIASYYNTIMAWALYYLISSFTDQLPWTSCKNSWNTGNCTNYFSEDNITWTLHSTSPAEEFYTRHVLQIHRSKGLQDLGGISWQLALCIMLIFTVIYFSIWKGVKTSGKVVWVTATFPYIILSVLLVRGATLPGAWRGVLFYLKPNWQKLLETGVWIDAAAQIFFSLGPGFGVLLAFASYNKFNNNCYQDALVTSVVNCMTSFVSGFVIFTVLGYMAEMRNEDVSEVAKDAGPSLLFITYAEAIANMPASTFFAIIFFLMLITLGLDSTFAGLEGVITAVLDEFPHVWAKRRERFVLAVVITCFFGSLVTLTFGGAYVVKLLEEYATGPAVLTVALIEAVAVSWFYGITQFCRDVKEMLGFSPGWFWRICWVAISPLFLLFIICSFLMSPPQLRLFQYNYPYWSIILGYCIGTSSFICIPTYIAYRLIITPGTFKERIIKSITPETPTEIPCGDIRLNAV

Clc1ccc2sc(C3CCNCC3)nc2c1 [compound 1, 5-chloro-2-(piperidin-4-yl)-1,3-benzothiazole hydrochloride]
IC50: 6.24 nM
